Test system: 596521-263-R-J1-PDC complex spheroids, viability % of control
Test: Anticancer human tumor 596521-263-R-J1-PDC patient-derived soft tissue sarcoma cell line growth inhibition [GQUAD]
Conditions: for IC50: curve of first compound; for viability, T/C: stronger effect = lower value; active means viability on the fitted dose curve at most 10% of control; inactive means the rest
How it was run: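 Tumor cells were grown as complex spheroids with HUVEC endothelial cells and mesenchymal stem cells as stroma. G-quadruplex stabilizers were combined with targeted agents over half-log dilutions from near the clinical Cmax, or from 10 microM.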

[1] = second compound 0.0316 µM, first compound 0.0316 µM
[2] = second compound 0.0316 µM, first compound 0.1 µM
[3] = second compound 0.0316 µM, first compound 0.316 µM
[4] = second compound 0.0316 µM, first compound 1 µM
[5] = second compound 0.0316 µM, first compound 3.16 µM
[6] = second compound 0.0316 µM, first compound 10 µM
[7] = second compound 0.1 µM, first compound 0.0316 µM
[8] = second compound 0.1 µM, first compound 0.1 µM
[9] = second compound 0.1 µM, first compound 0.316 µM
[10] = second compound 0.1 µM, first compound 1 µM
[11] = second compound 0.1 µM, first compound 3.16 µM
[12] = second compound 0.1 µM, first compound 10 µM
[13] = second compound 0.316 µM, first compound 0.0316 µM
[14] = second compound 0.316 µM, first compound 0.1 µM
[15] = second compound 0.316 µM, first compound 0.316 µM
[16] = second compound 0.316 µM, first compound 1 µM
[17] = second compound 0.316 µM, first compound 3.16 µM
[18] = second compound 0.316 µM, first compound 10 µM
[19] = second compound 1 µM, first compound 0.0316 µM
[20] = second compound 1 µM, first compound 0.1 µM
[21] = second compound 1 µM, first compound 0.316 µM
[22] = second compound 1 µM, first compound 1 µM
[23] = second compound 1 µM, first compound 3.16 µM
[24] = second compound 1 µM, first compound 10 µM
[25] = second compound 3.16 µM, first compound 0.0316 µM
[26] = second compound 3.16 µM, first compound 0.1 µM
[27] = second compound 3.16 µM, first compound 0.316 µM
[28] = second compound 3.16 µM, first compound 1 µM
[29] = second compound 3.16 µM, first compound 3.16 µM
[30] = second compound 3.16 µM, first compound 10 µM
[31] = second compound 10 µM, first compound 0.0316 µM
[32] = second compound 10 µM, first compound 0.1 µM
[33] = second compound 10 µM, first compound 0.316 µM
[34] = second compound 10 µM, first compound 1 µM
[35] = second compound 10 µM, first compound 3.16 µM
[36] = second compound 10 µM, first compound 10 µM
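Further: spheroids exposed to drugs for 7 days before viability reading.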
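Wherever viability, T/C is given: 100% = DMSO vehicle control viability.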

CC(C)n1c(=O)n(C)c2cnc3cc(F)c(-c4ccc(OCCCN5CCCCC5)nc4)cc3c21 + CN(C)c1ccc(Nc2c3ccc(NC(=O)CCN4CCCC4)cc3nc3cc(NC(=O)CCN4CCCC4)ccc23)cc1
> 10 µM: IC50 (second compound 0.0316 µM) | IC50 (second compound 0.1 µM) | IC50 (second compound 0.316 µM) | IC50 (second compound 1 µM) | IC50 (second compound 3.16 µM)
inactive: viability, T/C [1] 104% | viability, T/C [2] 103% | viability, T/C [3] 100% | viability, T/C [4] 87.1% | viability, T/C [5] 84.1% | viability, T/C [6] 66.8% | viability, T/C [7] 104% | viability, T/C [8] 106% | viability, T/C [9] 91.8% | viability, T/C [10] 95.7% | viability, T/C [11] 92.4% | viability, T/C [12] 63.5% | viability, T/C [13] 111% | viability, T/C [14] 96.8% | viability, T/C [15] 103% | viability, T/C [16] 89.8% | viability, T/C [17] 84.7% | viability, T/C [18] 64.9% | viability, T/C [19] 99.8% | viability, T/C [20] 112% | viability, T/C [21] 100% | viability, T/C [22] 98.5% | viability, T/C [23] 96.9% | viability, T/C [24] 73.6% | viability, T/C [25] 90.7% | viability, T/C [26] 98% | viability, T/C [27] 91.2% | viability, T/C [28] 80.7% | viability, T/C [29] 77% | viability, T/C [30] 59.6% | viability, T/C [31] 70% | viability, T/C [32] 60.7% | viability, T/C [33] 57.4% | viability, T/C [34] 48.4% | viability, T/C [35] 43.6% | viability, T/C [36] 31.5%
0.899 µM: IC50 (second compound 10 µM)

C=CCn1c(=O)c2cnc(Nc3ccc(N4CCN(C)CC4)cc3)nc2n1-c1cccc(C(C)(C)O)n1 + Cc1[nH]c2ccc(F)cc2c1-c1nc2c3cccnc3c3ncccc3c2[nH]1
5.46 µM: IC50 (second compound 0.316 µM)
inactive: viability, T/C [1] 99.1% | viability, T/C [2] 97.8% | viability, T/C [3] 92.5% | viability, T/C [4] 88% | viability, T/C [5] 69.9% | viability, T/C [6] 32% | viability, T/C [7] 120% | viability, T/C [8] 91.6% | viability, T/C [9] 92.5% | viability, T/C [10] 94.7% | viability, T/C [11] 64.8% | viability, T/C [12] 30% | viability, T/C [13] 110% | viability, T/C [14] 88.3% | viability, T/C [15] 81.7% | viability, T/C [16] 84.5% | viability, T/C [17] 70.3% | viability, T/C [18] 31.2% | viability, T/C [19] 102% | viability, T/C [20] 88.8% | viability, T/C [21] 86.7% | viability, T/C [22] 90.2% | viability, T/C [23] 64.3% | viability, T/C [24] 31.3% | viability, T/C [25] 83.7% | viability, T/C [26] 85% | viability, T/C [27] 92.1% | viability, T/C [28] 86.2% | viability, T/C [29] 66.8% | viability, T/C [30] 33.7% | viability, T/C [31] 90.3% | viability, T/C [32] 82.2% | viability, T/C [33] 84.5% | viability, T/C [34] 79.2% | viability, T/C [35] 69.4% | viability, T/C [36] 31.2%
5.57 µM: IC50 (second compound 10 µM)
5.68 µM: IC50 (second compound 3.16 µM)
5.29 µM: IC50 (second compound 1 µM)
5.81 µM: IC50 (second compound 0.0316 µM)
5.31 µM: IC50 (second compound 0.1 µM)

Source: PubChem BioAssay AID2060500 (Molecular Pharmacology Branch, DTP, NCI, 2025)
